The values that follow come from patent US20180354921A1, “SUBSTITUTED OXADIAZOLES FOR COMBATING PHYTOPATHOGENIC FUNGI” (BASF SE, priority 2015, published 2018).

Compound `O=C(Cc1ccccc1)Nc1ccc(-c2noc(C(F)(F)F)n2)cc1` [Ex-1, 2-phenyl-N-[4-[5-(trifluoromethyl)-1,2,4-oxadiazol-3-yl]phenyl]acetamide] displayed a melting point of 198 °C.

The term melting point denotes the temperature, or range, at which the solid turns liquid.
